Experimental data: patent US20170360805A1, “MOTOR-ASSOCIATED NEURODEGENERATIVE DISEASE AND METHODS OF TREATMENT” (priority 2016, published 2017)

Experiments:
[1] = system: TDP43 stress granule formation of U2OS cells expressing GFP-labeled human TDP43; assay: TDP43 stress granule assay (arsenite challenge, fluorescence imaging); format: cell-based; conditions: Example 2, FIG. 4; 0.01, 0.1, 1 and 10 μM, 24 h pre-incubation, sodium arsenite 250 μM 120 min; Student's t Test vs arsenite control
[2] = system: NSC-34 cells; assay: Glutamate excitotoxicity model, MTT cell viability, NSC-34 cells; format: cell-based, mouse; conditions: 24 hours, 0.01-10 μM, FIG. 7A
Description: (§1) FIG. 7A-FIG. 7B illustrate the effects of 15d-PGJ2 at four different concentrations (0.01, 0.1, 1, and 10 μM) on glutamate induced neurotoxicity in NSC-34 cells (left-FIG. 7A) and primary rat cortical neurons (right-FIG. 7B). Cell viability was determined by the MTT assay. Data are shown as mean+SEM (n=6 or 12) as percentage of vehicle control (VC). Statistical significance is indicated by *<0.05 and **<0.01 as determined by One-Way ANOVA followed by Dunnett's Multiple Comparison Test, in comparison to glutamate lesion (L or Glu).
Viability of cultures was determined by the MTT assay using a plate-reader (570 nm). This assay allows the measurement of the mitochondrial dehydrogenase activity which reduces yellow MTT to dark blue formazan crystals. Since this reaction was catalyzed in living cells, this assay was used for the determination of cell viability. MTT solution was added to each well in a final concentration of 0.5 mg/ml. After 2 hours the MTT containing medium was aspired. Cells were lysed in 3% SDS and the formazan crystals were dissolved in isopropanol/HCl. Optical density was measured with a plate-reader at wavelength 570 nm. Cell survival rate was expressed as optical density (OD). Values were calculated as percent of control values (vehicle control).
15d-PGJ2 was tested in a glutamate excitotoxicity model, a model of ALS. […]

[3] = system: primary rat cortical neurons; assay: Glutamate excitotoxicity model, MTT cell viability, primary rat cortical neurons; format: cell-based; conditions: 24 hours, 0.01-10 μM, FIG. 7B
Description: as §1
(§2) Primary cortical neurons were prepared from time mated Sprague Dawley rats. Animals were sacrificed and embryos were dissected in Calcium and Magnesium free Hanks Balanced Salt Solution (CMF-HBSS) containing 15 mM HEPES and 10 mM NaHCO3, pH 7.2. Embryos were decapitated, skin and skull gently removed and cortical hemispheres were separated. […] Cells were counted in a hemacytometer and 4×10^4 cells per well were seeded on poly-D-lysine pre-coated 96-well plates. […]
Viability of cultures was determined by the MTT assay using a plate-reader (570 nm). […] Optical density was measured with a plate-reader at wavelength 570 nm. Cell survival rate was expressed as optical density (OD). Values were calculated as percent of control values (vehicle control). […]

[4] = system: M3 network genes; assay: Validation of M3 network activation by RNA sequencing; format: cell-based; conditions: 1 μM, primary rat cortical neurons, no glutamate lesion, FIG. 5
Description: Bioinformatics predictions of M3 network activation from isoflupredone was validated in naïve neuronal cells (primary rat cortical neurons).
In parallel, 5 different test items and 2 reference items at 1 concentration each were applied to primary rat cortical neurons from […] of Sprague Dawley rats. The compounds were incubated for 8 days. […] Cell viability was determined by MTT and RNA was isolated. A number of ≧3 technical replicates were used.
Test item 1: isoflupredone (1 micromolar)
as §2
Messenger RNA was extracted from the cells and sequencing libraries were prepared using the TruSeq kit and poly-A selection. The resulting libraries were sequenced at a depth of 30 million reads per sample using single-ended 75 bp reads.

SMILES	aggregation of TDP43 compared to the negative control (mean number of fluorescent aggregates per cell) [1]	effect on glutamate induced neurotoxicity (cell viability, MTT) [2]	effect on glutamate induced neurotoxicity (cell viability, MTT) [3]	activation of M3 network genes (pattern of activation) [4]
CC(=O)[C@H]1CC[C@H]2[C@@H]3C[C@H](C)C4=CC(=O)CC[C@]4(C)[C@H]3[C@@H](O)C[C@]12C [medrysone]	did not show a statistically significant effect	–	–	–
CCCCC/C=C\C=C1\C(=O)C=CC1C/C=C\CCCC(=O)O (centres unmarked) [15d-PGJ2, 15-Deoxy-Δ12,14-prostaglandin J2]	–	neuroprotective effect	neuroprotective effect	–
C[C@]12C=CC(=O)C=C1CC[C@H]1[C@@H]3CC[C@](O)(C(=O)CO)[C@@]3(C)C[C@H](O)[C@@]12F [isoflupredone, (11β)-9-Fluoro-11,17,21-trihydroxypregna-1,4-diene-3,20-dione]	statistically significant decrease	–	–	largely up-regulation
